Three compounds from patent US9708314B2, “Heterocyclic amide compound” (NISSAN CHEMICAL INDUSTRIES, LTD., priority 2013, dated 2017) can be followed below.

Holding throughout (type): in vivo
In data set [1] the test system is Beta vulgaris ssp. vulgaris. Put plainly: Test Example 4: effect on crop by application to foliage (diluvial soil, plastic box). Conditions: application to foliage; for effect on crop, f (Beta vulgaris ssp. vulgaris): 320 g/ha. The method in brief: (§1)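 Read-out is a 0–5 visual grade of herbicidal ratio (5: ≥90%, almost withered; 0: ≤5%) taken three weeks after treatment. Compound was applied as a diluted emulsion to stem and leaf parts of 14-day greenhouse-grown plants (25° C. to 30° C.) at rates expressed as g/ha.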

The test system of data set [2] is directly sowed Oryza sativa. The data set is described as above. As to conditions: application to foliage; for effect on crop, d (directly sowed Oryza sativa): 320 g/ha. The method in brief: as §1
Data set [3] has as its system Brassica campestris L. The data set is described as above. As to conditions: application to foliage; for effect on crop, g (Brassica campestris L.): 320 g/ha. The method, boiled down:
as §1

Data set [4] has as its system Glycine max. The data set is described as above. As to conditions: application to foliage; for effect on crop, c (Glycine max): 320 g/ha. The method, boiled down:
as §1

The test system of data set [5] is Zea mays. The description is as above. Conditions: application to foliage; for effect on crop, b (Zea mays): 320 g/ha. The method, boiled down: as §1
In data set [6] the test system is Triticum aestivum. Described as above. Conditions: application to foliage; for effect on crop, e (Triticum aestivum): 320 g/ha. The method in brief: as §1
For data set [7], the system named is Galium spurium. Kind of data set: Test Example 4: herbicidal effect by application to foliage (diluvial soil, plastic box). As to conditions: application to foliage; for herbicidal effect, Q (Galium spurium): 320 g/ha. The text has this:
(§2) 5 Herbicidal ratio of 90% or more (almost completely withered) 4 Herbicidal ratio of 70% or more and less than 90% 3 Herbicidal ratio of 40% or more and less than 70% 2 Herbicidal ratio of 20% or more and less than 40% 1 Herbicidal ratio of 5% or more and less than 20% 0 Herbicidal ratio of 5% or less (almost no effect) [Test Example 4] Herbicidal Effect Test by Application to Foliage Sterilized diluvial soil was placed in a plastic box having a length of 21 cm, a width of 13 cm, and a depth of 7 cm. Each of the seeds of Digitaria ciliaris, Setaria viridis, Echinochloa crus-galli var. crus-galli, Avena fatua, Alopecurus myosuroides, Lolium multiflorum Lam., Apera spica-venti., Abutilon theophrasti, Amaranthus retroflexus, Chenopodium album, Stellaria media, Galium spurium, Veronica persica, Zea mays, Glycine max, Oryza sativa, Triticum aestivum, Beta vulgaris ssp. vulgaris, and Brassica campestris L. was sowed in a spot-like manner and was covered with the soil of about 1.5 cm thick. Thereafter, the plants were grown in the greenhouse of 25° C. to 30° C. After the plants were grown for 14 days, the emulsion agent containing the compound of the present invention prepared in accordance with Formulation Example 2 was diluted with water so as to be a predetermined herbicide amount and the diluted compound was uniformly applied to a stem and leaf part with a small-size spray. Three weeks after the herbicide application, effects on each plant were investigated in accordance with the criteria of Test Example 1. A: Echinochloa oryzicola Vasing., B: Scirpus juncoides, C: Monochoria vaginalis, D: Leptochloa chinensis, E: Cyperus difformis, F: Digitaria ciliaris, G: Setaria viridis, H: Echinochloa crus-galli var. crus-galli, I: Avena fatua, J: Alopecurus myosuroides, K: Lolium multiflorum Lam., L: Apera spica-venti., M: Abutilon theophrasti, N: Amaranthus retroflexus, O: Chenopodium album, P: Stellaria media, Q: Galium spurium, R: Veronica persica, a: transplanted Oryza sativa, b: directly sowed Oryza sativa, c: Zea mays, d: Glycine max, e: Triticum aestivum, f: Beta vulgaris ssp. vulgaris, and g: Brassica campestris L. The application herbicide amount (g/ha) means an amount that a concentration is adjusted so that, when an application amount is converted into per hectare (1 ha), the herbicide is applied by the number of grams (g) of the described value.

In data set [8] the test system is Amaranthus retroflexus. The data set is described as above. As to conditions: application to foliage; for herbicidal effect, N (Amaranthus retroflexus): 320 g/ha.
Text: as §2

Data set [9] has as its system Veronica persica. Described as above. As to conditions: application to foliage; for herbicidal effect, R (Veronica persica): 320 g/ha.
Text: as §2

For data set [10], the system named is Setaria viridis. The data set is described as above. Conditions: application to foliage; for herbicidal effect, G (Setaria viridis): 320 g/ha.
Text: as §2

For data set [11], the system named is Echinochloa crus-galli var. crus-galli. Described as above. Conditions: application to foliage; for herbicidal effect, H (Echinochloa crus-galli var. crus-galli): 320 g/ha.
Text: as §2

The subject of data set [12] is Stellaria media. Described as above. Conditions: application to foliage; for herbicidal effect, P (Stellaria media): 320 g/ha.
Text: as §2

For data set [13], the system named is Abutilon theophrasti. Described as above. As to conditions: application to foliage; for herbicidal effect, M (Abutilon theophrasti): 320 g/ha.
Text: as §2

In data set [14] the test system is Alopecurus myosuroides. The data set is described as above. As to conditions: application to foliage; for herbicidal effect, J (Alopecurus myosuroides): 320 g/ha.
Text: as §2

The subject of data set [15] is Apera spica-venti. The description is as above. As to conditions: application to foliage; for herbicidal effect, L (Apera spica-venti.): 320 g/ha.
Text: as §2

Data set [16] relates to Chenopodium album. The description is as above. Conditions: application to foliage; for herbicidal effect, O (Chenopodium album): 320 g/ha.
Text: as §2

Data set [17] has as its system Digitaria ciliaris. Described as above. Conditions: application to foliage; for herbicidal effect, F (Digitaria ciliaris): 320 g/ha.
Text: as §2

Data set [18] deals with Lolium multiflorum Lam. The data set is described as above. As to conditions: application to foliage; for herbicidal effect, K (Lolium multiflorum Lam.): 320 g/ha.
Text: as §2

Data set [19] has as its system Avena fatua. The description is as above. Conditions: application to foliage; for herbicidal effect, I (Avena fatua): 320 g/ha.
Text: as §2

The mark [20] stands for this setting: application herbicide amount 320 g/ha.

Consider `CC(C)c1nnc2c(C(=O)Nc3ncn[nH]3)ccc(C(F)(F)F)n12` [4-004], for which the “effect on crop, f (Beta vulgaris ssp. vulgaris)” value in data set [1] was 0 (Herbicidal ratio of 5% or less (almost no effect)). The “effect on crop, d (directly sowed Oryza sativa)” value in data set [2] was 0 (Herbicidal ratio of 5% or less (almost no effect)). Further, the “effect on crop, g (Brassica campestris L.)” value in [3] is listed as 0 (Herbicidal ratio of 5% or less (almost no effect)). For the same compound, the “effect on crop, c (Glycine max)” value in [4] is listed as 0 (Herbicidal ratio of 5% or less (almost no effect)). The “effect on crop, b (Zea mays)” value in data set [5] is listed as 0 (Herbicidal ratio of 5% or less (almost no effect)). The “effect on crop, e (Triticum aestivum)” value in [6] is reported as 0 (Herbicidal ratio of 5% or less (almost no effect)). For the same compound, the “herbicidal effect, Q (Galium spurium)” value in data set [7] is reported as 0 (Herbicidal ratio of 5% or less (almost no effect)). Further, the “herbicidal effect, N (Amaranthus retroflexus)” value in data set [8] is reported as 0 (Herbicidal ratio of 5% or less (almost no effect)). Moreover, the “herbicidal effect, R (Veronica persica)” value in data set [9] was 0 (Herbicidal ratio of 5% or less (almost no effect)). For the same compound, the “herbicidal effect, G (Setaria viridis)” value in [10] was 0 (Herbicidal ratio of 5% or less (almost no effect)). Besides, the “herbicidal effect, H (Echinochloa crus-galli var. crus-galli)” value in data set [11] is on record as 0 (Herbicidal ratio of 5% or less (almost no effect)). The “herbicidal effect, P (Stellaria media)” value in data set [12] is recorded as 0 (Herbicidal ratio of 5% or less (almost no effect)). Also, the “herbicidal effect, M (Abutilon theophrasti)” value in data set [13] is reported as 0 (Herbicidal ratio of 5% or less (almost no effect)). The “herbicidal effect, J (Alopecurus myosuroides)” value in data set [14] is reported as 0 (Herbicidal ratio of 5% or less (almost no effect)). Besides, the “herbicidal effect, L (Apera spica-venti.)” value in data set [15] is 0 (Herbicidal ratio of 5% or less (almost no effect)). For the same compound, the “herbicidal effect, O (Chenopodium album)” value in [16] was 4 (Herbicidal ratio of 70% or more and less than 90%). Also, the “herbicidal effect, F (Digitaria ciliaris)” value in data set [17] is 0 (Herbicidal ratio of 5% or less (almost no effect)). For the same compound, the “herbicidal effect, K (Lolium multiflorum Lam.)” value in data set [18] is 0 (Herbicidal ratio of 5% or less (almost no effect)). Besides, in data set [19], the “herbicidal effect, I (Avena fatua)” value is given as 0 (Herbicidal ratio of 5% or less (almost no effect)).
Regarding `CC(C)c1nnc2c(C(=O)Nc3nnnn3C)cc(C(F)(F)F)cn12` [2-018], in [1] (setting [20]), the “f: effect on crop, Beta vulgaris ssp. vulgaris” value is 1 (Herbicidal ratio of 5% or more and less than 20%). Also, the “b: effect on crop, directly sowed Oryza sativa” value in data set [2] (setting [20]) is given as 0 (Herbicidal ratio of 5% or less (almost no effect)). Also, in [3] (setting [20]), the “g: effect on crop, Brassica campestris L.” value is on record as 0 (Herbicidal ratio of 5% or less (almost no effect)). Further, the “d: effect on crop, Glycine max” value in data set [4] (setting [20]) is listed as 0 (Herbicidal ratio of 5% or less (almost no effect)). Besides, the “c: effect on crop, Zea mays” value in data set [5] (setting [20]) is 0 (Herbicidal ratio of 5% or less (almost no effect)). Also, the “e: effect on crop, Triticum aestivum” value in data set [6] (setting [20]) is reported as 0 (Herbicidal ratio of 5% or less (almost no effect)). Also, the “Q: herbicidal effect on Galium spurium” value in data set [7] (setting [20]) is 1 (Herbicidal ratio of 5% or more and less than 20%). For the same compound, the “N: herbicidal effect on Amaranthus retroflexus” value in data set [8] (setting [20]) is 3 (Herbicidal ratio of 40% or more and less than 70%). For the same compound, in data set [9] (setting [20]), the “R: herbicidal effect on Veronica persica” value was 2 (Herbicidal ratio of 20% or more and less than 40%). Further, the “G: herbicidal effect on Setaria viridis” value in [10] (setting [20]) is 1 (Herbicidal ratio of 5% or more and less than 20%). For the same compound, the “H: herbicidal effect on Echinochloa crus-galli var. crus-galli” value in data set [11] (setting [20]) is 1 (Herbicidal ratio of 5% or more and less than 20%). For the same compound, the “P: herbicidal effect on Stellaria media” value in data set [12] (setting [20]) is reported as 0 (Herbicidal ratio of 5% or less (almost no effect)). Also, in [13] (setting [20]), the “M: herbicidal effect on Abutilon theophrasti” value is 3 (Herbicidal ratio of 40% or more and less than 70%). Also, the “J: herbicidal effect on Alopecurus myosuroides” value in [14] (setting [20]) is reported as 0 (Herbicidal ratio of 5% or less (almost no effect)). In addition, the “L: herbicidal effect on Apera spica-venti.” value in data set [15] (setting [20]) is recorded as 0 (Herbicidal ratio of 5% or less (almost no effect)). The “O: herbicidal effect on Chenopodium album” value in data set [16] (setting [20]) was 3 (Herbicidal ratio of 40% or more and less than 70%). For the same compound, the “F: herbicidal effect on Digitaria ciliaris” value in data set [17] (setting [20]) was 2 (Herbicidal ratio of 20% or more and less than 40%). In data set [18] (setting [20]), the “K: herbicidal effect on Lolium multiflorum Lam.” value is 0 (Herbicidal ratio of 5% or less (almost no effect)). The “I: herbicidal effect on Avena fatua” value in [19] (setting [20]) was 0 (Herbicidal ratio of 5% or less (almost no effect)).
Regarding `Cc1nnc(NC(=O)c2ccc(C(F)(F)F)n3c(=O)n(Cc4ccccc4)nc23)o1` [6-006], the “effect on crop, f (Beta vulgaris ssp. vulgaris)” value in data set [1] is on record as 0 (Herbicidal ratio of 5% or less (almost no effect)). In addition, the “effect on crop, d (directly sowed Oryza sativa)” value in [2] is listed as 0 (Herbicidal ratio of 5% or less (almost no effect)). For the same compound, the “effect on crop, g (Brassica campestris L.)” value in data set [3] is given as 0 (Herbicidal ratio of 5% or less (almost no effect)). For the same compound, the “effect on crop, c (Glycine max)” value in data set [4] is 0 (Herbicidal ratio of 5% or less (almost no effect)). In addition, in data set [5], the “effect on crop, b (Zea mays)” value is reported as 0 (Herbicidal ratio of 5% or less (almost no effect)). Also, in data set [6], the “effect on crop, e (Triticum aestivum)” value is 0 (Herbicidal ratio of 5% or less (almost no effect)). Further, the “herbicidal effect, Q (Galium spurium)” value in data set [7] is recorded as 0 (Herbicidal ratio of 5% or less (almost no effect)). Further, the “herbicidal effect, N (Amaranthus retroflexus)” value in data set [8] is recorded as 0 (Herbicidal ratio of 5% or less (almost no effect)). In addition, in data set [9], the “herbicidal effect, R (Veronica persica)” value was 1 (Herbicidal ratio of 5% or more and less than 20%). Moreover, the “herbicidal effect, G (Setaria viridis)” value in data set [10] is on record as 0 (Herbicidal ratio of 5% or less (almost no effect)). Also, in [11], the “herbicidal effect, H (Echinochloa crus-galli var. crus-galli)” value is 0 (Herbicidal ratio of 5% or less (almost no effect)). Besides, the “herbicidal effect, P (Stellaria media)” value in [12] was 1 (Herbicidal ratio of 5% or more and less than 20%). In addition, in data set [13], the “herbicidal effect, M (Abutilon theophrasti)” value was 1 (Herbicidal ratio of 5% or more and less than 20%). Moreover, the “herbicidal effect, J (Alopecurus myosuroides)” value in data set [14] is listed as 0 (Herbicidal ratio of 5% or less (almost no effect)). Further, the “herbicidal effect, L (Apera spica-venti.)” value in data set [15] is 0 (Herbicidal ratio of 5% or less (almost no effect)). Also, the “herbicidal effect, O (Chenopodium album)” value in [16] was 3 (Herbicidal ratio of 40% or more and less than 70%). Moreover, the “herbicidal effect, F (Digitaria ciliaris)” value in data set [17] is recorded as 0 (Herbicidal ratio of 5% or less (almost no effect)). In data set [18], the “herbicidal effect, K (Lolium multiflorum Lam.)” value was 0 (Herbicidal ratio of 5% or less (almost no effect)). The “herbicidal effect, I (Avena fatua)” value in [19] is on record as 0 (Herbicidal ratio of 5% or less (almost no effect)).
